The test system of the assay is Tumor explants from TNBC patients. Nature of the assay: Ex-vivo tumor explant model, Ki67 IHC. Further details: species or system human. Particulars: for Ki67 levels: paclitaxel 1 μM, 48 hours. Here is the method: To further establish the efficacy of these miRNAs in treating TNBC, we used ex-vivo tumor explant model. Freshly excised breast cancer tissues were dissected into 1 mm^3 specimens, placed on hydrated gelatin sponge in explant media supplemented with hydrocortisone and insulin at 37° C. in the CO2 incubator. Tumor explants from TNBC patients were treated with paclitaxel and tissues were gently removed, fixed in 10% neutral buffered formalin and processed for paraffin blocks. IHC analyses were conducted to determine the Ki67 levels. IHC of surgical specimens and explants reveal that explants retain the tissue architecture and proliferation properties of the original surgical specimen. […] FIG. 15.
Tumor explants growing on the gelatin sponge were treated with either sensitizer miRNA (75 nM) alone or paclitaxel (1 μM) alone or with miRNA (75 nM) and paclitaxel (1 μM) together. […] FIG. 16.

Consider `CC(=O)O[C@H]1C(=O)[C@@]2(C)[C@H]([C@H](OC(=O)c3ccccc3)[C@]3(O)C[C@H](OC(=O)[C@H](O)[C@@H](NC(=O)c4ccccc4)c4ccccc4)C(C)=C1C3(C)C)[C@]1(OC(C)=O)CO[C@@H]1C[C@@H]2O` [paclitaxel], for which, for the setting “advanced stage TNBC explant”, the “response to paclitaxel (Ki67 staining)” value is “not responsive”. Moreover, where the note is “non-relapsed TNBC explant”, the Ki67 staining result was “inhibition of Ki67 staining”. The Ki67 levels result (relapsed / advanced stage TNBC explants, sensitizer miRNA 75 nM) is reported as “did not result in significant change” and the Ki67 levels result (responsive TNBC (early stage cancer) explants) is recorded as “significant inhibition of Ki67 levels”.
